This note sets out measurements from patent publication US4681091A, “Combination modality cancer therapy” (priority 1985, dated 1987).

Like-named read-outs stand apart in the source and are kept apart here. Bounds are passed on as bounds.

In data set [1] the test system is bacterial cells (salmonella typhimurium TM677). Conditions: salmonella typhimurium tm677, 0 h, 200 µM.
Data set [2] has the same test system.
Data set [3] can be described thus: in vitro. The note with it: salmonella typhimurium tm677, N/No (toxicity).
Data set [4] relates to mammalian cell culture. Description: cells. An excerpt:
Immediately after addition of the drug to the culture media, the petri dishes containing the cells are placed into aluminium chambers which are then degassed and purged with nitrogen to produce hypoxia. The degassing/back-filling cycle is repeated two times and the cells are irradiated with cobalt-60 gamma rays in the aluminium chambers at the end of the two hours. Control, un-irradiated cell cultures are exposed to the drug in various concentrations to assess drug cytotoxicity. Immediately following irradiation the cells are removed from the petri dishes using trypsin enzyme for 6 minutes, pipetted into single cell suspensions, and serially diluted for subculturing in triplicate petri dishes containing 5 cc of fresh culture media without the test compound. These dishes are incubated in 5% CO2 at 37° C. for 10 days and, following staining, the colonies are counted to produce survival curves (surviving fraction of cells versus compound concentration or radiation dose). As in the bacterial radiosensitization tests, baseline curves for irradiation of the mammalian cells under oxic and hypoxic conditions in the absence of the compound are also determined to allow a quantitative estimation of the efficiency of the compound in sensitizing the cells to radiation-induced killing by deriving enhancement ratios.
In FIG. 3, the dotted line represents the standard or average reported misonidazole response. The symbols " " and ` ` represent experimental misonidazole response and the experimental Rh compound response respectively.

Data set [5] deals with mammalian cell culture. The note with it: for 1 hour Aerobic Cytotoxicity: aerobic mammalian cell culture; for 1 hour hypoxic cytotoxicity: hypoxic mammalian cell culture.

In the case of `O=[N+]([O-])[Rh-3]([N+](=O)[O-])([N+](=O)[O-])([N+](=O)[O-])([N+](=O)[O-])[N+](=O)[O-].[K+].[K+].[K+]` [Compound 2, potassium hexanitrorhodium (III)], in data set [1], the “N/No (toxicity)” value was determined as 1. Moreover, in data set [2], the “improvement for cell-kill (N/No), sensitised vs unsensitised cells” value was “dramatic improvement for cell-kill (N/No)”. In data set [3], the viability at 0 h, 200 µM came to 100% and the viability at 0.5 h, 200 µM came out at 105%.

As to `NCCN.NCCN.[Cl-].[Cl-].[Cl-].[Cl-].[Cl-].[Cl-].[Cl-].[Cl-].[NH3+]CC[NH3+].[Rh+3].[Rh+3]` [[RhenCl4]2 [enH2]], the “aerobic (oxic) response” value in data set [4] (FIG. 3, aerobic (oxic)) is reported as “effectively zero”. The “effectiveness compared with misonidazole” value in data set [4] (from concentrations giving ser 1.6) is given as 75%. Further, the “1 hour Aerobic Cytotoxicity” value stood at 78.0% in data set [5] (100 µM), 61.0% in data set [5] (1000 µM) and 6.1% in data set [5] (10000 µM). The “1 hour hypoxic cytotoxicity” value in data set [5] (100 µM) was 95%; in data set [5] (330 µM) it was 83.6%; in data set [5] (1000 µM) it was 62.7%; in data set [5] (3300 µM), 22%; in data set [5] (10000 µM) it was less than 1%.

Consider `COCC(O)Cn1ccnc1[N+](=O)[O-]` (stereo not shown) [misonidazole, reference compound], for which the EC (SER 1.6) in data set [4] (read-out: C1.6: concentration required to give an ser (sensitizer enhancement ratio) of 1.6) amounted to 1500 µM.

For `[O-2].[O-2].[O-2].[Rh+3].[Rh+3]` [rhodium oxide], the “toxicity, water solubility or sensitisation effect (combined statement)” value (“toxicity … (combined statement)” for short) in data set [2] is “either too toxic, not soluble in water or failed altogether to show a sensitisation effect”.

Turning to `[Cl][Rh]([Cl])[Cl]` [rhodium trichloride], the “toxicity … (combined statement)” value in data set [2] is “either too toxic, not soluble in water or failed altogether to show a sensitisation effect”.

On to `CCCC[N+](CCCC)(CCCC)CCCC.[C-]#[O+].[C-]#[O+].[Cl-].[Cl-].[Rh+]` [tetra-n-butylammoniumdicarbonyldichlororhodium (I)], for which the “toxicity … (combined statement)” value in data set [2] was “either too toxic, not soluble in water or failed altogether to show a sensitisation effect”.

For “dichlorobis (ethylenediamine) rhodium (III) [Compound 3]”, the “improvement for cell-kill (N/No), sensitised vs unsensitised cells” value in data set [2] is on record as “dramatic improvement for cell-kill (N/No)”.
